# Entries after “also recorded” stand apart in the source; their conditions may differ. Where two headings read alike, the source gives them in different places.
# What was measured:
# [1] = test system: DRO cells; experiment: Western blot of RhoB, RhoA, p21, cyclin E polypeptides in DRO cells; assay type: cell-based, human
# Protocol: RhoB and p21^WAF1/CIP1 polypeptide expression also was examined in ATC cells to determine the time course of induction of each polypeptide following stimulation with a PPARγ agonist (FIG. 6). […]. Polypeptide lysates were prepared and examined for RhoB, RhoA and β-actin expression. […]; FIG. 6A).
# The time course for induction of RhoB and p21^WAF1/CIP1 was determined using Western blotting.
# (§1) DRO90-1 (DRO) and ARO81 (ARO) cells were derived from primary cultures of human anaplastic thyroid carcinoma tumors that were obtained from Dr. G. J. Juillard (University of California-Los Angeles, Los Angeles, Calif.), and KTC-2 and KTC3 cells were obtained from Dr. Junichi Kurebayashi (Podtcheko et al., J. Clin. Endocrinol. Metab., 88:1889-1896 (2003) and Pushkarev et al., Molecular mechanisms of the Effects of Low Concentrations of Taxol in Anaplastic Thyroid Cancer Cells. Endocrinology: en. 2004-0127 (2004)). Cells were cultured in RPMI 1640 medium (Cellgro, Herndon Va.) supplemented with 10% charcoal-stripped fetal bovine serum (Hyclone), non-essential amino acids, sodium pyruvate, and penicillin-streptomycin-amphotericin B at 37° C. in a humidified atmosphere with 5% CO^2. Charcoal-stripped serum was used to exclude endogenous PPAR ligands contained in serum. For proliferation studies, cells were plated in triplicate in 12-well culture plates at initial concentrations of 2×10^4 cells/well. After overnight incubation, cells were treated with 10 nM RS5444 or DMSO diluent (Sigma) for 6 days with medium, and drug changed every 48 hours. After 6 days, cells were washed with PBS (Cellgro), trypsinized, and counted by Beckman Coulter Counter (Beckman Instruments, Fullerton Calif.). For morphology studies, cells were plated in 12 well plates at initial concentrations of 2.5×10^4 cells/well. Cells were treated with either DMSO or 10 nM RS5444 (24 hours). After treatment, phase images were obtained on an inverted microscope. For real time PCR studies, cells were plated in 60 mm plates at 50% confluence and treated with 10 nM RS5444 for indicated incubation periods. […].
# Cells were collected and lysed in RIPA buffer containing 50 mM Tris, 5 mM EDTA, 150 mM NaCl, 0.1% SDS, 0.5% Deoxycholate, 1% NP40, and protease inhibitor cocktail (Roche) followed by centrifugation. Excised tumor tissues were lysed in 50 mM Tris pH 8.0+1% SDS. Collected supernatants were, analyzed for protein concentration using Pierce's BCA assay, with 25 μg protein loaded per gel lane (Invitrogen) with later transfer to Immobilon-P membranes. The membranes were hybridized with antibodies (Santa Cruz, Cell Signaling, Sigma-Aldrich, St. Louis Mo.) as indicated overnight at 4° C. followed by treatment with species-specific horseradish peroxidase IgG (Jackson labs) for 45 minutes at room temperature. Detection was performed using Supersignal West Pico chemoluminescence kit (Pierce). Quantification of bands was performed in triplicate using Image Quant 5.2 (Molecular Dynamics, Sunnyvale Calif.).
# [2] = test system: DRO cells; experiment: DRO cell proliferation (cell counts over six days); assay type: cell-based, human; details: for IC50: Homo sapiens
# Protocol: . Cells were treated every 48 hours over six days. Cell numbers were counted and data were plotted as mean values ±S.D. The thiazolidinediones inhibited cell proliferation of DRO cells in a dose responsive fashion (FIG. 3B). […]. The EC50 concentrations were in close agreement with the IC50 concentrations for each compound (FIG. 3B).
# . […] Cell numbers were counted and data were plotted as mean values ±S.D. (FIG. 9D).
# as §1, with “[…].” for “For morphology studies, cells were plated in 12 well plates at initial concentrations of 2.5×10^4 cells/well.”
# Cells were either plated in triplicate at 7.5×10^4 cells/mL in 6-well plates or 2×10^4 cells/well in 12-well plates, allowed to adhere overnight, and then transfected for 24 to 72 hours with 2 to 5 μg of either scrambled, p21^WAF1/CIP1 (1022539), RhoB (SI00058933) or PPAR-γ-specific siRNA duplexes (Qiagen Valencia, Calif.) using RNAiFect reagent (Qiagen). The DNA target sequence for PPAR-γ was 5′-[…]-3′. After transfection, cells in the 6-well plates were treated with either DMSO diluent or 10 nM RS5444 for 24 hours and then analyzed by either real time PCR or immunoblotting. Cells in the 12-well plates were exposed for 6 days with medium, and drug changed every 48 hours. After 6 days, cells were washed with PBS (Cellgro), trypsinized, and counted by Beckman Coulter Counter.
# [3] = target: T1, PPARγ (Homo sapiens, UniProt P37231); experiment: PPRE3-tk-luc reporter (dual luciferase) assay in DRO cells; assay type: cell-based; set-up: endogenous in cells; host or cells: DRO90-1 (DRO) human anaplastic thyroid carcinoma cells
# T1 sequence (P37231 1-505): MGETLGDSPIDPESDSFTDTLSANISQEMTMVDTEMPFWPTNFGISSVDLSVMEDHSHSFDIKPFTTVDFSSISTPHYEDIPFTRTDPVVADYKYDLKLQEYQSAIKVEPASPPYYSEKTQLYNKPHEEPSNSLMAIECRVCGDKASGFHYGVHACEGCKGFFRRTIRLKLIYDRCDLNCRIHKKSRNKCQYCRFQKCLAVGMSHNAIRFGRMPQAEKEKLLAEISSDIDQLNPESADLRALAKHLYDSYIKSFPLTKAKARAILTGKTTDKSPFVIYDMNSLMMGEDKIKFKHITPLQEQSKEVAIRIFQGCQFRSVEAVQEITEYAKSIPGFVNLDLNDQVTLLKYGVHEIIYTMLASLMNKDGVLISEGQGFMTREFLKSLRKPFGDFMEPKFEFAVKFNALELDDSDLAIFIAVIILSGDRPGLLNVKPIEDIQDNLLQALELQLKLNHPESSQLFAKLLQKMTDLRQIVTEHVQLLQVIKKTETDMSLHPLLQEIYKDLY
# Protocol: The effects of PPARγ agonists on DRO cells were investigated. […] Firefly luciferase activity was normalized to renilla […] activity (RLU) and plotted as mean values ±S.D. (FIG. 3A).
# Cells were transfected with siRNA for 72 hours followed by transfected with a PPRE3-tk-luc reporter and treatment with 10 nM RS5444 for 24 hours. […] Cotransfection with renilla luciferase allowed for normalization to relative light units (RLU).
# Cells were plated in 6-well culture plates at initial concentrations of 2×10^5 cells/well. After overnight incubation, cells were transfected with PPRE/luc and CMV/renilla luciferase plasmid using Lipofectamine 2000 (Invitrogen), and after 24 hours, cells were treated with PPAR-γ agonists at indicated concentrations. After 24 hours of drug treatments, cells were washed with PBS and lysed in 1× reporter lysis buffer (Roche), and luciferase activity was measured with a Dual Luciferase assay kit (Promega, Madison Wis.) with a luminometer (Veritas/Turner Biosystems). The enzyme activity was normalized for efficiency of transfection on the basis of renilla activity levels and reported as relative light units (RLU).
# [4] = DRO cells treated every 48 hours over six days, read-out: IC50, concentration at which 50% of cell proliferation was inhibited
smiles,measurement,setting,value
COC(=O)[C@H](CCSC)NC(=O)c1ccc(NC[C@@H](N)CS)cc1-c1ccccc1 [FTI-277],RhoB and p21 expression (Western blot),"[1]; 24 hours, 10 nM RS5444, 1 ng/mL FK-228, 10 μM FTI-277",upregulation of both RhoB and p21 expression
same,inhibition of cell proliferation with RhoB vs scrambled siRNA,"[2]; DRO cells transfected with RhoB or scrambled siRNA, treated every 48 hours for 6 days",dependent upon the upregulation of RhoB polypeptide to inhibit cell proliferation
O=C(Nc1ccccc1)c1cc([N+](=O)[O-])ccc1Cl [GW9662],effect on RS5444 inducible luciferase activity,[3]; 10 μM GW9662 followed by 10 nM RS5444 one hour later,complete loss of RS5444 inducible luciferase activity
same,effect on agonist activation of PPARγ-induced luciferase activity,"[3]; DRO cells pretreated 5 minutes with 10 μM GW9662 before 10 nM RS5444, 1 μM rosiglitazone or 10 μM troglitazone",abolished
same,effect of antagonist on RS5444-induced RhoB polypeptide expression,"[1]; GW9662 plus 10 nM RS5444, 24 hours",abolished; also recorded: blocked the ability of RS5444 to elevate RhoB polypeptide expression
same,effect on growth inhibition by TZDs,"[2]; DRO cells pretreated one hour with 10 μM GW9662 before 10 nM RS5444, 1 μM rosiglitazone or 10 μM troglitazone, every 48 hours over six days",no longer growth inhibited
CN(CCOc1ccc(CC2SC(=O)NC2=O)cc1)c1ccccn1 (stereo not drawn) [rosiglitazone],IC50,[2]; [4],~75 nM
Cc1c(C)c2c(c(C)c1O)CCC(C)(COc1ccc(CC3SC(=O)NC3=O)cc1)O2 (stereo not drawn) [troglitazone],IC50,"[2]; DRO cells treated every 48 hours for six days (FIG. 3B legend), read-out: IC50, DRO cell number",~1400 nM
same,IC50,[2]; [4],~1410 nM
